Measurements reported in patent US8895585B2, “Nicotinamide derivative or salt thereof” (FUJIFILM Corporation, priority 2010, dated 2014).
Read-outs that look alike come from different tables or passages of the source. One block for each molecule: values may come before it.

How the values were obtained:
[1] = tested on: male DBA/1J mice; test: Mouse type-II collagen-induced arthritis (prophylactic and therapeutic administration test); assay type: in vivo; conditions: for advancement of arthritis after the onset (arthritis score): prophylactic administration test, once daily Day 21 to Day 34, 1 to 30 mg/kg/day
Procedure: The compounds synthesized in Example 8-1, Example 4-17, and Example 6-49 were tested to examine effects upon mouse type II collagen arthritis. To 2 mg/mL bovine type II collagen solution (Koken Co., Ltd.) dissolved in 0.1 mol/L acetic acid, an equal amount of Freund's complete adjuvant (Wako Pure Chemical Industries, Ltd.) was added to prepare an emulsion. A portion of the emulsion was intradermally injected into the tail bases of 7- or 8-week-old male DBA/1J mice (Charles River Laboratories Japan, Inc.) at a dose of 0.2 mL per mouse (antigen amount: 0.2 mg/mouse) on Day 0 and Day 21 twice, so as to induce arthritis. Each compound was administered once daily from Day 21 to Day 34 in the prophylactic administration test (1 to 30 mg/kg/day), and administered once daily from Day 27 to Day 35 in the therapeutic administration test (25 mg/kg/day). Arthritis scores for four limbs for each mouse were determined starting from Day 21. Specifically, the total score of four limbs of a mouse was designated as the individual arthritis score (12 points at a maximum per mouse) based on the following: score 0: no change; score 1: swelling of 1 or 2 digit joints or mild swelling of the carpal region/the ankle region alone; score 2: swelling of joints of at least 3 digits or obvious swelling of the carpal region/the ankle region; and score 3: obvious swelling over forelimbs or hindlimbs.

[2] = tested on: female Lewis rats; test: Rat type-II-collagen-induced arthritis; assay type: in vivo; conditions: oral administration at 10 mg/kg/day, once daily Day 7 to Day 20, hindlimb volume by plethysmometer, read-out: inhibition of hindlimb swelling compared with the control group
Procedure: The compounds were tested to examine effects upon rat type II collagen arthritis. To 3 mg/mL bovine type II collagen solution (Collagen Gijutsu Kenshu-Kai) dissolved in 0.05 mol/L acetic acid, an equal amount of Freund's incomplete adjuvant (Wako Pure Chemical Industries, Ltd.) was added to prepare an emulsion. A portion of the emulsion (0.5 ml) was intradermally injected into the tail bases of 7- or 8-week-old female Lewis rats (Charles River Laboratories Japan, Inc.) (Day 0). Each rat was subjected to the same treatment on Day 7 after the initial inoculation so as to induce arthritis. Each test compound was orally administered from Day 7 to Day 20 once daily. At a given time during the period from Day 7 to Day 21, the rat hindlimb volume was determined using a plethysmometer (UGO BASILE), and the result was designated as an arthritis index. The following compound group inhibited hindlimb swelling by 85% or greater compared with the control group in the case of oral administration at 10 mg/kg/day: the compounds of Example 4-17, Example 6-49, Example 6-117, Example 6-157, Example 6-249, Example 6-322, Example 6-375, and Example 6-395.

[3] = tested on: 170 types of kinases excluding Syk; test: Kinase selectivity, Profiler Pro kits (Caliper); assay type: biochemical; conditions: test compound 100 nM
Procedure: The concentrations of test compounds were adjusted to 100 nM. The test compounds were examined using Profiler Pro kits (Caliper) in terms of activity against each of 170 types of kinases excluding Syk. […] A compound (Example 6-157) having a kinase inhibitory rate of 75% or more with respect to 12 types of kinases was also obtained. Further, an inhibitor (Example 6-373) having a kinase inhibitory rate of 75% or more with respect to 24 types of kinases was obtained.

[4] = biological target: T1, glutathione S-transferase (GST)-fused full-length human Syk protein (Homo sapiens, UniProt P43405); test: Syk enzyme assay; assay type: biochemical
T1 construct: (GST)-fused full-length human Syk protein; GST (glutathione S-transferase); purchased Carna Biosciences
How it was run: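 GST-tagged full-length human Syk (baculovirus) preincubated with compound 15 min at room temperature (pH 7.0, 10 mM MgCl2), then reacted 40 min with 0.4 μM biotinylated peptide substrate and 27 μM ATP (final). Phosphorylation read by HTRF (615/665 nm) after EDTA stop; IC50 reported.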

[5] = tested on: THP-1 cells; test: Antibody-dependent phagocytosis assay; assay type: cell-based; conditions: Homo sapiens; THP-1 cells induced to differentiate with IFNγ; opsonized Escherichia coli; Table 23; read-out: IC50 upon phagocytosis inhibition
Procedure: THP-1 cells (2×10^5 cells/ml) which are human monocyte-like cell line were cultured in the presence of 10 ng/ml IFNγ for 2 days, so that the cells were induced to differentiate into macrophage-like cells. THP-1 cells that had been induced to differentiate were collected. The cells (5×10^4 cells/well) were reacted with test compounds having given concentrations at room temperature for 30 minutes. Thereafter, Escherichia coli (Life Technologies) labeled with a pH-sensitive dye (pHrodo) was subjected to opsonization using an anti-Escherichia coli antibody (Molecular Probes). Then, the resultant was added to THP-1 cells mixed with test compounds that had been induced to differentiate, followed by incubation at 37° C. for 3 hours. At the time of addition of opsonized Escherichia coli, cell-permeable fluorescent dye (Calcein AM) were simultaneously added thereto, and phagocytosis of opsonized Escherichia coli in viable cells was quantitatively determined using an IN Cell Analyzer.
In addition, the following are used in Table 23 to denote standards for evaluating IC50 upon phagocytosis inhibition. • A: Up to 1 μM • B: 1 to 3 μM • C: 3 to 6 μM

[6] = tested on: THP-1 cells; test: TNFα generation assay; assay type: cell-based, human; conditions: Homo sapiens, THP-1, THP-1 cells; Table 22; read-out: IC50 in TNFα generation assay
How it was run: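 Secreted TNFα in supernatant quantified by ELISA or AlphaLISA after 7 h culture on human IgG-coated wells (10 μg/ml coating). Cells were IFN-γ-differentiated THP-1 (10 ng/ml, 2 days), exposed to compound for 30 min at room temperature before plating.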

[7] = tested on: female BALB/c mice; test: Mouse type-II-collagen-antibody-induced arthritis; assay type: in vivo; conditions: intraperitoneal 30 mg/kg/day, twice daily, Day 0 to Day 13
Procedure: The compound synthesized in Example 8-1 was tested to examine effects upon mouse-type-II-collagen-antibody-induced arthritis. An anti-type II collagen antibody mixture (Chondrex) was intraperitoneally injected into 7-week-old female BALB/c mice (Charles River Laboratories Japan, Inc.) (1.5 mg per mouse) (Day 0). An LPS solution 0111:B4 (Chondrex) (50 μg) was intraperitoneally injected thereinto three days later (Day 3), thereby inducing arthritis. Swelling scores were determined for four limbs of each mouse once daily from Day 3 to Day 14. Specifically, evaluation was carried out using a twelve-point scale for the sum of the scores for the four limbs for each mouse: 0 point: no change; 1 point: mild erythema/swelling on the carpal region or the ankle/calcaneal region; 2 points: obvious swelling on the carpal region or the ankle/calcaneal region; 3 points: severe swelling over forelimbs or hindlimbs. The compound synthesized in Example 8-1 was intraperitoneally administered at 30 mg/kg/day twice daily on consecutive days (from Day 0 to Day 13). The bone destruction score was determined based on soft X-ray images of four limbs taken on Day 14. […]

[8] = Syk enzyme assay, Test Example 1, read-out: IC50 of Syk-inhibitory activity

Compound: Cc1ccc(Nc2nc(N[C@@H]3CCCC[C@@H]3N)c(F)cc2C(N)=O)cn1 (relative stereo) [Example 4-17, 6-(cis-2-aminocyclohexylamino)-5-fluoro-2-(6-methylpyridin-3-ylamino)nicotinamide]
advancement of arthritis after the onset (arthritis score) [1]: strongly inhibited
inhibition in vivo at 10 mg/kg/day [2]: ≥ 85%

Compound: Cc1cncc(Nc2nc(N[C@@H]3CCCC[C@@H]3N)c(F)cc2C(N)=O)c1 (relative stereo) [Example 6-49, 6-(cis-2-aminocyclohexylamino)-5-fluoro-2-(5-methylpyridin-3-ylamino)nicotinamide]
advancement of arthritis after the onset (arthritis score) [1]: strongly inhibited
advancement of arthritis (arthritis score) ([1]; therapeutic administration test, once daily Day 27 to Day 35, 25 mg/kg/day): strongly inhibited
inhibition in vivo at 10 mg/kg/day [2]: ≥ 85%

Compound: CC(C)C[C@H](CN)Nc1nc(Nc2ccc3ncccc3c2)c(C(N)=O)cc1F [Example 6-117, (R)-6-((1-amino-4-methylpentan-2-yl)amino)-5-fluoro-2-((quinolin-6-yl)amino)nicotinamide]
inhibition in vivo at 10 mg/kg/day [2]: ≥ 85%

number of kinases with kinase inhibitory rate of 75% or more [3]: 12 types of kinases
Compound: COCCOc1cc(Nc2nc(N[C@@H](CN)CC(C)C)c(F)cc2C(N)=O)ccn1 [Example 6-157]
inhibition in vivo at 10 mg/kg/day [2]: ≥ 85%

Compound: CCC[C@@H](Nc1nc(Nc2ccnc(OC)c2)c(C(N)=O)cc1F)[C@H](C)N [Example 6-249, 6-(((2S,3R)-2-aminohexane-3-yl)amino)-5-fluoro-2-((2-methoxypyridin-4-yl)amino)nicotinamide]
inhibition in vivo at 10 mg/kg/day [2]: ≥ 85%

Compound: CCn1ncc2cc(Nc3nc(N[C@@H](CN)CC(C)C)c(F)cc3C(N)=O)ccc21 [Example 6-322, (R)-6-((1-amino-4-methylpentan-2-yl)amino)-2-((1-ethyl-1H-indazol-5-yl)amino)-5-fluoronicotinamide]
inhibition in vivo at 10 mg/kg/day [2]: ≥ 85%

number of kinases with kinase inhibitory rate of 75% or more [3]: 24 types of kinases
Compound: C[C@H](N)[C@H](Nc1nc(Nc2cncc(-n3cccn3)c2)c(C(N)=O)cc1F)C1CC1 [Example 6-373, 2-((5-(1H-pyrazol-1-yl)pyridin-3-yl)amino)-6-(((1R,2S)-2-amino-1-cyclopropylpropyl)amino)-5-fluoronicotinamide]

Compound: Cc1ncc(Nc2nc(N[C@@H]3CCCC[C@@H]3N)c(F)cc2C(N)=O)cc1-n1nccn1 [Example 6-375, 6-(((1R,2S)-2-aminocyclohexyl)amino)-5-fluoro-2-((6-methyl-5-(2H-1,2,3-triazol-2-yl)pyridin-3-yl)amino)nicotinamide]
inhibition in vivo at 10 mg/kg/day [2]: ≥ 85%

Compound: NC(=O)c1cc(F)c(N[C@@H]2CCCC[C@@H]2N)nc1Nc1cnc(N2CCOCC2)c(F)c1 [Example 6-395, 6-(((1R,2S)-2-aminocyclohexyl)amino)-5-fluoro-2-((5-fluoro-6-morpholinopyridin-3-yl)amino)nicotinamide]
inhibition in vivo at 10 mg/kg/day [2]: ≥ 85%

IC50 [4, 8]: < 10 nM
IC50 [5]: < 1000 nM
IC50 [6]: < 65 nM
Compound: COC[C@@H](Nc1nc(Nc2ccc3ncccc3c2)c(C(N)=O)cc1F)[C@H](C)N [Example 006-468, 6-(((2S,3S)-3-amino-1-methoxybutan-2-yl)amino)-5-fluoro-2-((quinolin-6-yl)amino)nicotinamide]

IC50 ([4]; read-out: Syk-inhibitory activity (IC50)): ≤ 1000 nM
Compound: COc1cc(Nc2nc(NCCN)c(F)cc2C(N)=O)cc(OC)c1 [Example 8-1, 6-(2-aminoethylamino)-2-(3,5-dimethoxyphenylamino)-5-fluoronicotinamide]
advancement of arthritis after the onset (arthritis score) [1]: strongly inhibited
increase in the swelling score ([7]; scored Day 3 to Day 14): almost completely inhibited
increase in the bone destruction score ([7]; soft X-ray images on Day 14): almost completely inhibited

IC50 [4, 8]: < 10 nM
IC50 [5]: < 1000 nM
IC50 [6]: < 65 nM
Compound: NC(=O)c1cc(F)c(NC2CCCCC2N)nc1Nc1ccc2ncccc2c1 (centres unmarked) [Example 008-006]

IC50 [4, 8]: 10 to 50 nM
IC50 [5]: 1000 to 3000 nM
IC50 [6]: 65 to 130 nM
Compound: NC(=O)c1cc(F)c(N[C@@H](C(N)=O)c2ccccc2)nc1Nc1ccc2ncccc2c1 [Example 012-008]

IC50 [4, 8]: < 10 nM
IC50 [5]: 1000 to 3000 nM
IC50 [6]: < 65 nM
Compound: CCC(N)CNc1nc(Nc2ccc3ncccc3c2)c(C(N)=O)cc1F (centres unmarked) [Example 014-001]
